Experimental data taken from patent publication US11155558B2, “Dual mode of action soluble guanylate cyclase activators and phosphodiesterase inhibitors and uses thereof” (TOPADUR PHARMA AG, priority 2017, dated 2021).
Where two headings read alike, the source gives them in different places.

Columns and labels:
[1] = Measurements of human plasma protein binding; format: in vitro ADME
Method: An aliquot of 200 μL of human plasma containing test compound was spiked into donor well (red chamber) of the insert. 350 μL of PBS was spiked into receiver well (white chamber) of the insert.
The samples were matrix equilibrated with opposite matrix (25 μL of plasma/buffer sample was matched with 25 μL of blank buffer/plasma). Matrix matched samples were precipitated with 200 μL of acetonitrile containing internal standard. Samples were vortexed at 1000 rpm for 5 min and centrifuged at 4000 rpm for 10 min. Supernatant was separated, diluted 2 fold with water and analysed in LC-MS/MS. TO control samples were processed immediately after the preparation of plasma working stock solutions. These samples serves as a measure for calculating the percentage recovery of test compounds.

[2] = tested on: Human Pulmonary Artery Smooth Muscle Cells (hPASMC); test: Measurements of cGMP in human pulmonary artery smooth muscle cells (hPASMC); format: cell-based; details: 30 min incubation, 0.1 pM-1 uM, compared to sildenafil, mirodenafil or compound 5 (FIG. 3)
Method: Human Pulmonary Artery Smooth Muscle Cells (hPASMC) were purchased from Clonetics™ Lonza (Lonza, reference number CC-2581) and cultured in Clonetics™ smooth muscle growth medium (Clonetics™ SmGM™-2 with BulletKit™ growth factor supplements (Lonza, reference number CC-3182) at 37° C. in 5% CO2. Culture medium was replaced each 48 hours. Cells were grown in 75 cm^2 culture plates. 48 h before the experiments, cells were trypsinized (Trypsin kit One ReagentPack™ (CC-5034), Lonza) and plated in 96 well plates precoated with collagen I at 10000 cells per well. 24 h before the experiments culture medium was replaced by serum-reduced (0.5% FBS) medium. […]
Measurements of intracellular cGMP were performed using the Amersham cGMP EIA System (GE Healthcare, RPN226) following the instructions of the manufacturer. […] Briefly, incubations were terminated by adding Amersham's lysis buffer 1 and cells left for 10 min under agitation to ensure complete lysis. cGMP in samples was then acetylated using triethylamine and acetic anhydride and determined by a competitive ELISA. The ELISA is based on the competition between acetylated cGMP in cell culture lysates and a peroxidase-labelled cGMP conjugate for limited binding sites on a cGMP specific antiserum immobilized on pre-coated 96 well MTP. cGMP was determined based on a standard curve. […]

[3] = biological target: PDE5 enzyme isolated from human platelets (Homo sapiens (Human), UniProt O76074); test: PDE5 assay (Example 109), formation of 5′GMP from cGMP, SPA; details: for % inhibition at 5.0E−09 M: percent inhibition of control enzyme activity at 5.0E−09 M, assay of Example 109;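 on all read-outs here: tritiated 5′GMP counted by scintillation after SPA bead capture, enzyme reaction run 60 min at 22 °C, basal control is the mixture without enzyme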
Method: Evaluation of the effects of compounds of the present invention on the activity of the human phosphodiesterase-5 quantified by measuring the formation of 5′GMP from cGMP using PDE5 enzyme isolated from human platelets.
Thereafter, the reaction is initiated by addition of the enzyme and the mixture is incubated for 60 min at 22° C.
For basal control measurements, the enzyme is omitted from the reaction mixture. Following incubation SPA beads are added. After 20 min at 22° C. under shaking, the amount of [3H]5′GMP is quantified with a scintillation counter (Topcount, Packard).
The standard inhibitory reference compound is dipyridamole, which is tested in each experiment at several concentrations to obtain an inhibition curve from which its IC50 value is calculated.

[4] = biological target: recombinant human (rh) PDE5A (Homo sapiens (Human), UniProt O76074); test: Phosphodiesterase-5 activity assay (Example 110), radiometric SPA; format: biochemical
Method: The inhibition of recombinant human (rh) PDE5A by test compounds is measured in a radiometric assay based on Scintillation Proximity Assay (SPA) technology. The substrate [3H]cGMP/cGMP is hydrolysed to [3H] 5′ GMP/5′ GMP contingent on the activity of rhPDE5A. The ensuing [3H] 5′ GMP/5′ GMP but not [3H] cGMP/cGMP binds to SPA yttrium silicate beads in the presence of Zn^++ stimulating the scintillant within the bead to emit light that is detected by a ß-counter. The assay is performed in a 96 well format.
The assay is done in 20 mM Tris HCl pH 7.4, 5 mM MgCl2, […] cGMP/[3H] cGMP (about 60000 dpm/well) substrate with rhPDE5A1 (GST tagged, SIGMA E9034) added to an amount not exceeding 20% cGMP hydrolysis within 20 min in Tris 20 mM pH 7.4 supplemented with 0.01% bovine serum albumin (BSA) in the presence of test compounds or vehicle (0.1% DMSO). The final assay volume amounts to 100 μl and the reaction is run for 20 min at 37° C.
The hydrolysis of [3H] cGMP/cGMP by rhPDE5A is terminated by adding SPA beads at 50 µl/well (Perkin Elmer, RPNQ0024), pre-diluted in water as per manufacturer's instructions and supplemented with 3-isobutyl-1-methylxanthine (1 mM). Beads are allowed to sediment for at least 30 min before measurement in a Wallac Microbeta 2 (Perkin Elmer).
In general, test compounds are added at seven different concentrations from […] in log steps. […] Results (IC50) are given as the mean from at least two independent experiments each performed in triplicate.

## CCCOc1ccc(S(=O)(=O)N2CCC(CCO[N+](=O)[O-])CC2)cc1-c1nc2c(CCC)cn(CC)c2c(=O)[nH]1 [Compound 1b, 2-(1-((3-(5-ethyl-4-oxo-7-propyl-4,5-dihydro-3H-pyrrolo[3,2-d]pyrimidin-2-yl)-4-propoxyphenyl)sulfonyl)piperidin-4-yl)ethyl nitrate]
[1]
  % Bound in Plasma: 99.95%
  fraction unbound: 0.0005
[1]; human
  recovery: 100%
[2]
  efficacy in increasing intracellular cGMP level: significantly higher efficacy in increasing cGMP level
[3]
  IC50: > 10 nM
  % inhibition at 5.0E−09 M: 12.4%

## CCCOc1ccc(S(=O)(=O)N2CCN(CCO[N+](=O)[O-])CC2)cc1-c1nc2c(CCC)cn(CC)c2c(=O)[nH]1 [Compound 1i, 2-(4-((3-(5-ethyl-4-oxo-7-propyl-4,5-dihydro-3H-pyrrolo[3,2-d]pyrimidin-2-yl)-4-propoxyphenyl)sulfonyl)piperazin-1-yl)ethyl nitrate]
[2]
  efficacy in increasing intracellular cGMP level: significantly higher efficacy in increasing cGMP level
[3]
  IC50: 2 nM
  % inhibition at 5.0E−09 M: 60.0%

## CCCOc1ccc(S(=O)(=O)N2CCC([C@H](CO[N+](=O)[O-])O[N+](=O)[O-])CC2)cc1-c1nc2c(CCC)cn(C)c2c(=O)[nH]1 [Compound 3g, (R)-1-(1-((3-(5-methyl-4-oxo-7-propyl-4,5-dihydro-3H-pyrrolo[3,2-d]pyrimidin-2-yl)-4-propoxyphenyl)sulfonyl)piperidin-4-yl)ethane-1,2-diyl dinitrate]
[4]
  IC50: 23 nM

## CCCOc1ccc(S(=O)(=O)N2CCC([C@@H](CO[N+](=O)[O-])O[N+](=O)[O-])CC2)cc1-c1nc2c(CCC)cn(C)c2c(=O)[nH]1 [Compound 3h, (S)-1-(1-((3-(5-methyl-4-oxo-7-propyl-4,5-dihydro-3H-pyrrolo[3,2-d]pyrimidin-2-yl)-4-propoxyphenyl)sulfonyl)piperidin-4-yl)ethane-1,2-diyl dinitrate]
[4]
  IC50: 3.7 nM

## CCCOc1ccc(S(=O)(=O)N2CCC(CO[N+](=O)[O-])(CO[N+](=O)[O-])CC2)cc1-c1nc2c(CCC)cn(C)c2c(=O)[nH]1 [Compound 3i, (1-((3-(5-methyl-4-oxo-7-propyl-4,5-dihydro-3H-pyrrolo[3,2-d]pyrimidin-2-yl)-4-propoxyphenyl)sulfonyl)piperidine-4,4-diyl)bis(methylene) dinitrate]
[4]
  IC50: 14 nM

## CCCOc1ccc(S(=O)(=O)N2CCC(CO[N+](=O)[O-])CC2)cc1-c1nc2c(CCC)cn(C)c2c(=O)[nH]1 [Compound 3k, (1-((3-(5-methyl-4-oxo-7-propyl-4,5-dihydro-3H-pyrrolo[3,2-d]pyrimidin-2-yl)-4-propoxyphenyl)sulfonyl)piperidin-4-yl)methyl nitrate]
[4]
  IC50: 15 nM

## CCCOc1ccc(S(=O)(=O)N2CCC([C@@H](O)CO[N+](=O)[O-])CC2)cc1-c1nc2c(CCC)cn(C)c2c(=O)[nH]1 [Compound 3l, (R)-2-hydroxy-2-(1-((3-(5-methyl-4-oxo-7-propyl-4,5-dihydro-3H-pyrrolo[3,2-d]pyrimidin-2-yl)-4-propoxyphenyl)sulfonyl)piperidin-4-yl)ethyl nitrate]
[4]
  IC50: 2 nM

## CCCOc1ccc(S(=O)(=O)N2CCC([C@H](CO[N+](=O)[O-])O[N+](=O)[O-])CC2)cc1-c1nc2c(CCC)c(/C=N/O)n(C)c2c(=O)[nH]1 [Compound 3o, (R,E)-1-(1-((3-(6-((hydroxyimino)methyl)-5-methyl-4-oxo-7-propyl-4,5-dihydro-3H-pyrrolo[3,2-d]pyrimidin-2-yl)-4-propoxyphenyl)sulfonyl)piperidin-4-yl)ethane-1,2-diyl dinitrate]
[4]
  IC50: 13 nM

## CCCOc1ccc(S(=O)(=O)N2CCC([C@@H](CO[N+](=O)[O-])O[N+](=O)[O-])CC2)cc1-c1nc2c(CCC)c(/C=N/O)n(C)c2c(=O)[nH]1 [Compound 3p, (S,E)-1-(1-((3-(6-((hydroxyimino)methyl)-5-methyl-4-oxo-7-propyl-4,5-dihydro-3H-pyrrolo[3,2-d]pyrimidin-2-yl)-4-propoxyphenyl)sulfonyl)piperidin-4-yl)ethane-1,2-diyl dinitrate]
[4]
  IC50: 12 nM

## CCCOc1ccc(S(=O)(=O)N2CCC([C@@H](O)CO[N+](=O)[O-])CC2)cc1-c1nc2c(CCC)c(/C=N/O)n(C)c2c(=O)[nH]1 [Compound 3q, (R,E)-2-hydroxy-2-(1-((3-(6-((hydroxyimino)methyl)-5-methyl-4-oxo-7-propyl-4,5-dihydro-3H-pyrrolo[3,2-d]pyrimidin-2-yl)-4-propoxyphenyl)sulfonyl)piperidin-4-yl)ethyl nitrate]
[4]; asterisk: assay described in Example 110, rhPDE5A1, read-out: IC50
  IC50: 3.3 nM
